Key:
[1] = test system: advanced soft tissue sarcoma; experiment: RMH-SARC retrospective cohort: advanced STS patients treated with pazopanib, PFS, OS and RECIST 1.1 response; format: in vivo, human
Source text: Collection and analysis of anonymised archival FFPE tissue and associated clinical data was approved in as a sub-study protocol amendment to the Royal Marsden-sponsored Elucidation of a Molecular signature of Pazopanib Response in Advanced soft tissue Sarcoma including solitary fibrous tumours (EMPRASS) study. (RMH Committee for Clinical Research reference 4107, NHS Research Ethic Committee reference 14/WA/0164). This cohort is referred to as RMH-SARC in this manuscript.
Patients were retrospectively identified for inclusion by search of institutional database and electronic patient records compiled during routine clinical practice. Eligibility criteria for inclusion were: i) histopathological diagnosis of soft tissue tumour as confirmed by contemporaneous report by specialist sarcoma histopathologist; ii) received at least one dose of pazopanib for treatment of unresectable or advanced STS; iii) available FFPE tumour specimen, obtained from patient prior to first dose of pazopanib. Treatment and response monitoring was as per standard institutional practice, with pazopanib at 800 mg once daily until disease progression, intolerable toxicity or significant clinical deterioration. Dose interruption and/or reduction were instigated based on standard institutional guidelines and the discretion of the treating physician. Baseline clinico-pathological characteristics and survival data were collected on retrospective review of contemporaneous electronic medical records. All related radiological imaging was retrospectively reviewed and disease response assessed according to RECIST 1.1. This manuscript is written according to the Reporting Recommendations for Tumor Marker Prognostic Studies (REMARK) guidelines15.
The stepwise primary objectives were to assess whether a surrogate of two immunohistochemical markers (FGFR1 and PDGFRA) and TP53 mutation status had statistical significant prognostic information for advanced STS. In this event, the two biomarkers panel were tested to determine if there is added statistically significant prognostic information to standard clinicopathological variables in multivariable comparisons. The secondary analyses included identification of biological subgroups based on gene expression profiles, and evaluation of the significance of these biological subgroups association with patient outcome. Progression free survival (PFS—defined as time in months from first dose of pazopanib to radiological disease progression or death from any cause) was the primary outcome endpoint, with overall survival (OS—defined as a time in months from first dose of pazopanib to death from any cause) as the secondary outcome endpoint. Data cut-off for survival follow-up was 30 Nov. 2016. Statistical analyses were performed by two senior statisticians. The Kaplan-Meier method was used to estimate PFS and OS, and the log-rank test to compare survival in different strata. Multivariable cox regression model was used to estimate the significance adjusted for the standard clinicopathological variables (including age, tumour grade, performance status and histological subtype). Proportional hazard assumption was tested using Schoenfeld residuals, and where deemed appropriate, Restricted Mean Survival was used. Interaction tests between FGFR1 and PDGFRA expression to predict for survival were evaluated for PFS and OS respectively. Likelihood ratio tests based on proportional hazards regression were used to test the prognostic information of all biomarkers. The quantification of the amount of prognostic information provided by one biomarker was assessed by the likelihood ratio χ^2 value (LRχ^2), and the additional information of one biomarker to biomarker score was measured by the increase of the likelihood ratio χ^2 value (ΔLRχ^2) obtained from the proportional hazards model.
Patients were identified by retrospective search of prospectively compiled institutional database and electronic patient records. […]

STS subtypes = details: randomised phase II trial; cited from earlier work
advanced STS = details: 1st line, in combination with doxorubicin; cited from earlier work
[2] = F-Lo/P-Hi (FGFR1-Lo/PDGFRA-Hi) subgroup
[3] = gene expression subgroup A (IHCneg, TP53 wt)

## Cc1ccc(Nc2nccc(N(C)c3ccc4c(C)n(C)nc4c3)n2)cc1S(N)(=O)=O [pazopanib, Pazopanib]
[1]; 31 of 38 patients, median follow-up 26.2 months
  patients who had died (overall survival event): 82%
[1]; 35 of 38 patients, median follow-up 26.2 months
  patients with a progression-free survival event: 92%
[1]; [2]
  median OS: 1.7 months
  median PFS: 1.4 months
[1]; F-Lo/P-Hi v. IHCneg, adjusted for clinico-pathological factors, 95% CI 3.86-40.72
  PFS HR, multivariable analysis: 12.54
[1]; F-Lo/P-Hi v. IHCneg, adjusted, 95% CI 5.90-82.81
  OS HR, multivariable analysis: 22.11
[1]; FGFR1-Lo/PDGFRA-Hi v. IHCneg, 95% CI 2.51-17.91
  OS HR, univariate analysis: 6.70
[1]; FGFR1-Lo/PDGFRA-Hi v. IHCneg, 95% CI 3.58-25.94
  PFS HR, univariate analysis: 9.64
[1]; RECIST 1.1, 17/38
  progression as best response: 44.7%
[1]; RECIST 1.1, best response, 1/38
  objective radiological response: 2.6%
[1]; RECIST 1.1, best response, 20/38
  stable disease: 52.6%
[1]; TP53 mutated v. wildtype, all 38 patients, 95% CI 0.83-3.76, P 0.14
  PFS HR, univariate analysis: 1.77
[1]; TP53 mutated v. wildtype, all 38 patients, 95% CI 1.15-5.51, P 0.02
  OS HR, univariate analysis: 2.51
[1]; TP53 mutation v. wildtype in 31 IHCneg cases, 95% CI 1.03-5.34, p=0.04
  PFS HR: 2.34
[1]; TP53 mutation v. wildtype in 31 IHCneg cases, 95% CI 1.44-8.39, p=0.003
  OS HR: 3.47
[1]; TP53 mutation v. wildtype, adjusted, 95% CI 1.45-10.86, p=0.007
  PFS HR, multivariable analysis: 3.97
[1]; TP53 mutation v. wildtype, adjusted, 95% CI 2.56-24.41
  OS HR, multivariable analysis: 7.90
[1]; [3]
  median OS: 34.4 months
  median PFS: 12.8 months
[1]; high v. low PDGFRA expression, 95% CI 1.01-4.35, p=0.04
  OS HR: 2.08
[1]; patients with partial response or stable disease
  median PFS: 6.4 months
[1]; subgroup A v. subgroup B or C, 22 IHCnegTP53 wt patients, 95% CI 0.04-0.96, p=0.03
  OS HR: 0.20
[1]; subgroup A v. subgroup B or C, 22 IHCnegTP53 wt patients, 95% CI 0.09-0.85, p=0.02
  PFS HR: 0.27
[1]; whole cohort, 38 patients
  median OS: 9.5 months
[1]; whole cohort, 38 patients, pazopanib 800 mg once daily
  median PFS: 3.7 months

## CNC(=O)c1cc(Oc2ccc(NC(=O)Nc3ccc(Cl)c(C(F)(F)F)c3)c(F)c2)ccn1 [regorafenib, Regorafenib]
STS subtypes
  efficacy in STS subtypes: efficacy in several STS subtypes but not adipocytic tumours

## olaratumab
Advanced STS
  OS benefit: marked OS benefit

Source: patent US12421556B2, “Materials and methods for stratifying and treating cancers” (The Institute of Cancer Research:Royal Cancer Hospital, priority 2017, dated 2025)
